Experimental findings from patent US9914733B2, “Biisoquinoline compounds and methods of treatment” (UNIVERSITY OF FLORIDA RESEARCH FOUNDATION, priority 2014, dated 2018) are described below.

Where two headings read alike, the source gives them in different places.

For one experiment, the system named is BT474 cells. Put plainly: Clonogenic cell growth inhibition assay, BT474. To be noted: Homo sapiens, BT-474; BT474 triple-positive breast cancer cells; 48 h treatment, colonies counted after additional 10 days; read-out: IC50, drug concentration required for 50% growth inhibition. The experiment is classed as cell-based. Here is the method: (§1) The following human breast cancer cell lines were used in these studies: (a) Triple-positive: BT474, MCF7 and T47D, (b) Triple-negative: MDA-MB231 and MDA-MB468. Cells were grown in the following medium at 37° C. under a humidified atmosphere of 5% CO2: DMEM (BT474 cells), RPMI (MCF7 and T47D cells) and MEM (MDA-MB231 and MDA-MB468 cells). For each cell line, the medium was supplemented with 10% fetal bovine serum (Hyclone, Logan, Utah) 100 U/ml of penicillin, and 100 μg/ml of streptomycin.
(§2) Cells were trypsinized and a single cell suspension was prepared. Cells were plated at a density of 5×10^2-1×10^3 cells in 60 mm tissue culture plates. After the attachment, cells were treated with different concentrations of biisoquinolines 1a-d for 48 h. After the treatment, medium containing drug was removed and supplemented with fresh medium. Cells were allowed to grow into colonies for additional 10 days. Colonies were fixed, stained with 0.3% (w/v) methylene blue, and excess of the dye was removed after washing with PBS. Colonies containing more than fifty cells were counted and the IC50 values, i.e., drug concentrations required for 50% growth inhibition of these cell lines were determined as described in our previous studies. [Balusu, R.; Jaiswal, A. S.; Armas, M. L.; Kundu, C. N.; Bloom L, B.; Narayan S. Biochemistry 2007, 46, 13961; Jaiswal, A, S.; Banerjee, S.; Panda, H.; Bulkini, C. D.; Izumi, T.; Sarkar, F. H.; Ostrov, D. A.; Narayan, S. Mol. Cancer Res. 2009, 7, 1973] The IC50 of each compound was determined from the survival curve using the SigmaPlot-10.0 software program.

For another experiment, the system named is MDA-MB468 cells. Put plainly: Clonogenic cell growth inhibition assay, MDA-MB468. The experiment is classed as cell-based. The following applies: Homo sapiens, MDA-MB-468; MDA-MB468 triple-negative breast cancer cells; 48 h treatment, colonies counted after additional 10 days; read-out: IC50, drug concentration required for 50% growth inhibition. Here is the method: as §1, §2

The next experiment concerns T47D cells. Put plainly: Clonogenic cell growth inhibition assay, T47D. The experiment is classed as cell-based, human. The following applies: for IC50: Homo sapiens, T47D triple-positive breast cancer cells, 48 h treatment, colonies counted after additional 10 days, read-out: IC50, drug concentration required for 50% growth inhibition. Here is the method:
as §1, §2

The subject of another experiment is MDA-MB231 cells. The experiment is described as follows: Clonogenic cell survival / cell growth inhibition assay, MDA-MB231. The experiment is classed as cell-based, human. To be noted: for toxicity to cells (result in words): MDA-MB231 cells, clonogenic assay; for IC50: 48 h treatment, colonies counted after additional 10 days, read-out: IC50, drug concentration required for 50% growth inhibition. The protocol:
as §1, §2
6,6′,7,7′-tetramethoxy biisoquinoline-imidazolium 1a, as well as its precursor compounds, bisamide 3a, and diimine 4a, were tested for the growth inhibitory effect on MDA-MB-231 cells by using the clonogenic cell survival assay [Balusu, R.; Jaiswal, A. S.; Armas, M. L.; Kundu, C. N.; Bloom L, B.; Narayan S. Biochemistry 2007, 46, 13961; Jaiswal, A, S.; Banerjee, S.; Panda, H.; Bulkin, C. D.; Izumi, T.; Sarkar, F. H.; Ostrov, D. A.; Narayan, S. Mol. Cancer Res. 2009, 7, 1973]. […] Then, three other methoxylated biisoquinoline-imidazolium compounds (1b-d) were tested to probe the optimal methoxy substitution pattern.

For a further experiment, the system named is MCF7 cells. Put plainly: Clonogenic cell growth inhibition assay, MCF7. To be noted: for IC50: Homo sapiens, MCF7 triple-positive breast cancer cells, 48 h treatment, colonies counted after additional 10 days, read-out: IC50, drug concentration required for 50% growth inhibition. The experiment is classed as cell-based, human. The protocol:
as §1, §2

The mark [1] stands for this setting: Homo sapiens, MDA-MB-231, MDA-MB231 triple-negative breast cancer cells.
The mark [2] stands for this setting: MDA-MB231 triple-negative breast cancer cells.

As to `COc1cccc(CCNC(=O)C(=O)NCCc2cccc(OC)c2OC)c1OC` [3b, N^1,N^2-bis(2,3-dimethoxyphenethyl)oxalamide], the IC50 in the experiment on BT474 cells is 34.1 µM; in the experiment on MDA-MB468 cells it was 35.4 µM. Besides, the “sensitivity of cells to the compound (result in words)” value is listed as “resistant” in the experiment on T47D cells (T47D cells, clonogenic assay) and “resistant” in the experiment with MCF7 cells (MCF7 cells, clonogenic assay). Also, in the experiment with MDA-MB231 cells, the “toxicity to cells (result in words)” value is recorded as “did not show any cytotoxicity”.

As to `COc1cc2c(c(OC)c1OC)CCn1c[n+]3c(c1-2)-c1cc(OC)c(OC)c(OC)c1CC3.[Cl-]` [1d, 2,2′,3,3′,4,4′-hexamethoxy-5,6,8,9-tetrahydro-6a,7a-diazadibenzo[c,g]fluorenium]chloride], the “toxicity to cells (result in words)” value with MDA-MB231 cells is given as “did not show any toxicity”.

Consider `COc1cc2c(cc1OC)-c1c3[n+](cn1CC2)CCc1cc(OC)c(OC)cc1-3` [1a, 2,2′,3,3′-tetramethoxy-5,6,8,9-tetrahydro-6a,7a-diazadibenzo[c,g]fluorenium]chloride], for which the IC50 in the experiment on BT474 cells was 3.1 µM; in the experiment with MDA-MB468 cells, 2.6 µM; in the experiment on T47D cells, 34 µM; in the experiment on MDA-MB231 cells (setting [1]), 19 µM; with MDA-MB231 cells (setting [2]), 20.8 µM; in the experiment on MCF7 cells, 35 µM.

`COc1ccc2c(c1OC)CCn1c[n+]3c(c1-2)-c1ccc(OC)c(OC)c1CC3` [1b, 3,3′,4,4′-tetramethoxy-5,6,8,9-tetrahydro-6a,7a-diazadibenzo[c,g]fluorenium]chloride]: the IC50 in the experiment with BT474 cells worked out at 0.7 µM; with MDA-MB468 cells it was 2.1 µM; in the experiment on T47D cells, 13.5 µM; in the experiment on MDA-MB231 cells (setting [1]), 18.2 µM; in the experiment with MDA-MB231 cells (setting [2]), 14.2 µM; in the experiment with MCF7 cells, 7.9 µM.

Regarding `COc1cc2c(cc1OC)C(C1=NCCc3cc(OC)c(OC)cc31)=NCC2` [4a, 6,6′,7,7′-tetramethoxy-3,3′,4,4′-tetrahydro-1,1′-biisoquinoline], the “toxicity to cells (result in words)” value with MDA-MB231 cells is “non-toxic”.

In the case of `COc1ccc2c(c1OC)C(=O)O[C@@H]2[C@H]1c2c(cc3c(c2OC)OCO3)CCN1C` [noscapine, reference compound], the IC50 turned out to be 64 µM in the experiment on MDA-MB231 cells (setting [1]) and 57 µM with MCF7 cells. Besides, the “fold higher IC50 than compound 1c” value in the experiment with MDA-MB231 cells (MDA-MB-231 cells, IC50 of noscapine relative to IC50 of 1c) is on record as 16 folds; with MCF7 cells (MCF7 cells, IC50 of noscapine relative to IC50 of 1c), 44 folds.

Consider `COc1ccc2c(c1)CCn1c[n+]3c(c1-2)-c1ccc(OC)cc1CC3` [1c, 3,3′-dimethoxy-5,6,8,9-tetrahydro-6a,7a-diazadibenzo[c,g]fluorenium]chloride], for which the IC50 with BT474 cells came to 0.3 µM; in the experiment with MDA-MB468 cells, 1.8 µM; with T47D cells, 1 µM; with MDA-MB231 cells (setting [1]) it was 4.7 µM; with MDA-MB231 cells (setting [2]) it was 2.4 µM; in the experiment with MCF7 cells it was 1.3 µM.
